According to article doi:10.1101/2025.10.01.679885v1, “Kinetic and thermodynamic analysis of PKA-R–cAMP interactions in crude media using focal molography” (biorxiv, 2025):
Like-named read-outs stand apart in the source and are kept apart here.

Legend:
[1] = biological target: T1, PKA-R (bovine RIα 92-260; bRIα 92–260) (Bos taurus, UniProt P00514); assay: biochemical; parameters: Focal molography, immobilised cAMP analogue, PKA-R as analyte; KD at 293 K from van't Hoff fit; settings: 293 K, van't Hoff fit
T1 construct: gene PRKAR1A; expressed in E. coli BL21 (DE3) RIL
T1 sequence (P00514 93-261): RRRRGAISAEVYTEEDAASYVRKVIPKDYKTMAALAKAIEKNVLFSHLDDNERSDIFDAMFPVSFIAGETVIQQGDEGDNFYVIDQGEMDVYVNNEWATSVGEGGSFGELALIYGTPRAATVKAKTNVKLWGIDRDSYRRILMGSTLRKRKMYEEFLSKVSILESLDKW
Description: In this study, we use focal molography to investigate the interaction between the cAMP binding domain A of the bovine R subunit Iα of PKA (bRIα 92–260) (PKA-R) and cyclic AMP (cAMP) analogues in both buffer and 50% human serum. The R-subunit inhibits protein kinase activity of the catalytic subunit of PKA by direct binding. By quantifying kinetic and thermodynamic parameters across a physiological temperature range, we examine how the biological environment alters the enthalpic and entropic contributions to binding. […] In order to determine the kinetic parameters of the PKA-R–cAMP interaction, multi cycle kinetic experiments were conducted in both buffer and 50% human serum at 20^◦C with intermediate regeneration. […] The sensor maintained reliable performance in both conditions, with no evidence of non-specific binding in serum. During these experiments, optimal experimental settings were refined iteratively to achieve the ideal flow rates and best transition times between association and dissociation phase. […] To mitigate this, buffer A was supplemented with bovine serum albumin (BSA) at a concentration of 1 mg/mL, which successfully eliminated sample depletion. […] Fig 8 summarizes the resulting thermodynamic parameters calculated at 293 K (see S1 Table for data). For both ligands, binding to PKA-R remains highly favorable in both media, with ΔG values around −10 kcal/mol yielding similar affinities. However, the underlying driving forces appear to differ between buffer and serum. […] In contrast, the interaction in 50% serum becomes more enthalpy driven for both ligands. For 6-AH-cAMP, ΔH drops to −7.4 kcal/mol, while the entropic contribution increases to −2.6 kcal/mol. For 8-AHA-cAMP, the transition is even more striking: binding becomes entirely enthalpy driven in serum, with an unfavorable entropy change (−T ΔS = 1.2 kcal/mol) and a strong enthalpic contribution (ΔH = −11.3 kcal/mol). All thermodynamic parameters were extracted from the linear fits to the van’t Hoff plots via standard error propagation from the covariance matrix returned by the linear regression. Specifically, standard deviations for ΔH, ΔS, and ΔG were calculated using the variances and covariances of the fitted slope and intercept. The reported KD values represent the predicted equilibrium dissociation constants at 293 K based on the linear fits, with associated uncertainties derived from the propagated variance in ln(KD).

[2] = biological target: T1, PKA-R (bovine RIα 92-260; bRIα 92–260); assay: biochemical; parameters: focal molography, PKA-R binding to immobilized cAMP analogue, multi-cycle kinetics, 20 °C, buffer A or 50% human serum; settings: 20 °C, mean of three replicates; for koff: read-out: koff [10^-2 s^-1]; for kon: read-out: kon [10^5 M^-1 s^-1]
Procedure: In order to determine the kinetic parameters of the PKA-R–cAMP interaction, multi cycle kinetic experiments were conducted in both buffer and 50% human serum at 20^◦C with intermediate regeneration. […] The sensor maintained reliable performance in both conditions, with no evidence of non-specific binding in serum. During these experiments, optimal experimental settings were refined iteratively to achieve the ideal flow rates and best transition times between association and dissociation phase. […] To mitigate this, buffer A was supplemented with bovine serum albumin (BSA) at a concentration of 1 mg/mL, which successfully eliminated sample depletion. […] Nevertheless, subtle differences in the association rate constant (kon) and dissociation rate constant (koff) are evident between the two media. These variations likely stem from the complex biological environment in serum, where interactions with additional serum components may slightly alter the binding dynamics. To ensure that the extracted kinetic parameters accurately represent the specific PKA-R–cAMP interaction, only the initial 15% of the dissociation phase was used to determine koff, thereby minimizing the influence of incomplete dissociation due to the residual sticking of the protein to the surface. Table 2 summarizes the triplicate kinetic measurements for both 6-AH-cAMP and 8-AHA-cAMP in buffer and serum. The equilibrium dissociation constants (KD) remain in the nanomolar range under all conditions. In this study, we use focal molography to investigate the interaction between the cAMP binding domain A of the bovine R subunit Iα of PKA (bRIα 92–260) (PKA-R) and cyclic AMP (cAMP) analogues in both buffer and 50% human serum. The R-subunit inhibits protein kinase activity of the catalytic subunit of PKA by direct binding. By quantifying kinetic and thermodynamic parameters across a physiological temperature range, we examine how the biological environment alters the enthalpic and entropic contributions to binding.

[3] = 50% human serum, read-out: KD [nM] Focal Mol. (Serum)
[4] = buffer, read-out: KD [nM] Focal Mol. (Buffer)

| Kd [1, 3] [nM] | Kd [1, 4] [nM] | Kd ([2]; 50% human serum) [nM] | koff ([2]; 50% human serum) [s⁻¹] | kon ([2]; 50% human serum) [M⁻¹ s⁻¹] | koff ([2]; buffer A) [s⁻¹] | kon ([2]; buffer A) [M⁻¹ s⁻¹] | Structure (SMILES) |
| --- | --- | --- | --- | --- | --- | --- | --- |
| 31 ± 3.4 | 25.5 ± 2.5 | 33.9 | 0.0165 | 487000 | 0.0129 | 389000 | NCCCCCCNc1nc2c(N)ncnc2n1[C@@H]1O[C@@H]2COP(=O)(O)O[C@H]2[C@H]1O [8-AHA-cAMP, 8-(6-Aminohexylamino)adenosine-3^′,5^′-cyclic monophosphate] |
| 36.6 ± 0.4 | 29.5 ± 0.9 | 25.4 | 0.0122 | 506000 | 0.013 | 448000 | NCCCCCCNc1ncnc2c1ncn2[C@@H]1O[C@@H]2COP(=O)(O)O[C@H]2[C@H]1O [6-AH-cAMP, N^6-(6-Aminohexyl)adenosine-3^′,5^′-cyclic monophosphate] |
